Several values for one entry are separate records, joined by “and”; a condition that tells them apart may be missing. Identical values can stand only once. One block for each compound: values may come before it.
Legend:
[1] = molecular target: T1, human cardiac myosin S2 peptide (Homo sapiens, UniProt P12883); test: Competitive ELISA (cELISA) against polyclonal anti-S2 antibody; type: binding; details: curve fit of OD vs peptide concentration; read-out: binding efficiency (Kd) to human cardiac myosin S2 peptide
T1 construct: The 19 residue peptide was chemically synthesized
Protocol: Phosphate buffer saline (PBS) contained 0.14 M sodium chloride, 2.7 mM potassium chloride, 1.5 mM potassium phosphate monobasic, and 8.1 mM sodium phosphate dibasic with pH 7.4. Detergent buffer was made with 0.05% triton X-100 in PBS, blocking buffer was made with 3% powdered milk in detergent buffer. Assay buffer contained 100 mM potassium phosphate dibasic, 100 mM potassium phosphate monobasic, 1 M potassium chloride and 10 mM magnesium chloride with pH 7.0. Stocks of primary antibody (polyclonal antibody anti-S2), rabbit skeletal myosin, human cardiac myosin S2 peptide, stabilizer and destabilizer peptide. Secondary antibody conjugated with alkaline phosphatase was anti-guinea pig immunoglobulin G (IgG)-alkaline phosphatase (Sigma-Aldrich, catalog number A5062) produced in goat and isolated by affinity chromatography. Substrate was 5-Bromo-4-chloro-3-indolyl phosphate (BCIP) tablets dissolved in 10 ml of distilled water per tablet and 96 well microtiter plate.
Competitive Enzyme Linked Immunosorbent Assay (cELISA) is a classical immunochemical test to validate the binding efficiency and specificity in lower molar concentrations (Yorde et al., 1976; Voller et al., 1978; Walker, J. M. 1996). In this assay the polyclonal antibody anti-S2 raised against single alpha helix of myosin S2 would be used to compete with stabilizer or destabilizer peptide to bind myosin S2 in rabbit skeletal myosin molecule as well as small human cardiac myosin S2 peptide. This cELISA, thus have two molecules polyclonal anti-S2 and stabilizer peptide which have two binding sites one on rabbit skeletal myosin and the other one being on small human cardiac myosin S2. Since both polyclonal anti-S2 and stabilizer peptide were designed against human β-cardiac myosin S2 they both would have a stronger affinity towards the smaller human β-cardiac myosin S2 peptide against the myosin S2 on rabbit skeletal myosin.
To test the binding specificity and efficiency of stabilizer or destabilizer peptide the following setup was used. Start of the setup would be to coat the wells with rabbit skeletal myosin molecule and add appropriate amount human cardiac myosin S2 peptide that would bind the primary polyclonal anti-S2 antibody and when washed there won't be enough primary polyclonal anti-S2 antibody to bind myosin S2 of rabbit skeletal myosin adsorbed on the wells. When alkaline phosphatase conjugated secondary antibody is added on to the wells, it won't have enough or none primary polyclonal anti-S2 antibody to bind. After addition of color developing BCIP substrate to the wells it would lead to low or no color development leading to lower optical density (OD). […]

[2] = molecular target: T2, smooth muscle myosin S2 peptide (MYH11) (Homo sapiens, UniProt P35749); test: FRET of smooth muscle myosin S2 peptide dimer with anti-S2 peptides; type: binding; details: control, no anti-S2 peptide; read-out: Dissociation Constant (Kd) of S2 peptide dimer
T2 construct: A 21 residue peptide of the S2 region of MYH11 was matched to the previously synthesized S2 peptide; host or cells: chemical synthesis
Description: Human smooth muscle myosin heavy chain (MYH11) is a part of the non-striated muscle. This gene can be found within esophagus, endometrium, duodenum, etc. A 21 residue peptide of the S2 region of MYH11 was matched to the previously synthesized S2 peptide of cardiac isoform and chemically synthesized 926-946. Generated amino acid sequence used is as follow: • Smooth: NH2-[…]—COOH (SEQ ID NO:11)
Resonance energy probes (donor and acceptor) were covalently attached to synthetic myosin S2 peptides of cardiac muscle, E930del cardiac muscle, E924K cardiac muscle, smooth muscle, and skeletal muscle (Aboonasrshiraz, N., 2020).
Acceptor probe was conjugated to muscle myosin S2 peptides at N-terminus. Muscle myosin S2 peptides were dissolved in 20 mM HEPES buffer at pH 8.0. And FITC was dissolved in few drops of N, N dimethyl formamide. Lastly, FITC and muscle myosin S2 peptide was reacted together in 1 to 1 molar ratio and was let to react for 120 minutes at room temperature. […]
In FRET assay, Fluorescein Isothiocyanate (FITC) functioned as fluorescent acceptor probe and Terbium Diethylene Triamine Pentaacetic Acid-Cytosine (Lanthanide-DTPA-Cytosine) functioned as donor probe. […] Lifetime of donor probe was measured in milliseconds.
The specificity of peptides were later tested on the myosin S2 of the smooth muscle (MYH11). […] Calculated separation distance in presence of the stabilizer peptide was 3.34 nm.

[3] = molecular target: T3, cardiac muscle myosin S2 peptide (MYH7) (Homo sapiens, UniProt P12883); test: Gravitational force spectroscopy (GFS), uncoiling of cardiac myosin S2 peptide dimer; type: biochemical; details: length 10 nm, absence of anti-S2 peptides, ± SEM
T3 construct: host or cells: chemical synthesis
T3 sequence (P12883 912-947 limits assumed): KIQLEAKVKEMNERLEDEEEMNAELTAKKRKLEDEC
Description: (§1) 3-aminopropyltriethoxysilane, acetone, coupling buffer (0.01 M pyridine in water with pH 6.0), 5% glutaraldehyde, quenching solution (1 M glycine in water with pH 7.0), blocking buffer (0.01 M Tris, 0.1% sodium azide, 0.1% bovine serum albumin, 0.15 M sodium chloride, and 0.001 M ethylenediaminetetraacetic acid with pH 7.0), wash buffer (0.01 M Tris, 0.1% sodium azide, 0.15 M sodium chloride, and 0.001 M ethylenediaminetetraacetic acid with pH 7.0) low salt buffer (0.1 M potassium chloride, 0.02 M imidazole, 5 mM magnesium chloride, with pH 7.0), 1-ethyl-3-(3-dimethyaminopropyl) carbodiimide, N-hydroxysuccinamide, iodoacetamide-succinimidyl ester, 8M urea solution (50 mM imidazole and 0.1 mM tris (2-carboxyethyl) phosphine with pH 7.0) monodisperse silica beads, glass slides, glass coverslips, vacuum grease, rabbit skeletal myosin, purified actin (G-actin), 1 μM human β-cardiac myosin S2 peptide, 1 μM human β-cardiac mutants myosin S2 peptide (E930del and E924K), 1 μM human skeletal myosin S2 peptide, 1 μM human smooth myosin S2 peptide, stabilizer peptide, and destabilizer peptide. A light microscope with an objective lens of 10× was mounted on an alt-azimuthal mount. A digital video camera of Sony, XCD-V60 was replaced with the ocular lenses. Extension springs on steel bracket held the alt-azimuthal mount suspended.
(§2) Gravitational force spectroscopy (GFS), is a single molecule force spectroscopy that utilizes gravitational force to measure absolute length of a single molecule at the given force calculated by the density of the bead suspending the molecule. This technique was discovered and developed in Root lab, which measures the forces in piconewton and sub-piconewton levels. Other than absolute length of a molecule, GFS measures force range required to uncoil, stretch or extend the molecule yielding a force-distance profile for the suspended molecule. Besides that, based on the force-distance profile, number of amino acids within the molecule can be calculated. […] The GFS allowed to test the flexibility or stability of a single molecule of myosin S2 peptide and also for the S2 peptides treated with anti-S2 peptides. Flexibility of myosin S2 is not dependent on assembly myosin as a thick filament or myosin in its single molecule form. The flexibility of myosin S2 region was reported to be similar in single molecule form or myosin in a thick filament assembly thus it could be conceived that the changes seen on flexibility of myosin S2 in presence of anti-S2 peptides would correlate to changes in myosin S2 flexibility for myosin in a thick filament form (Singh et al., 2018). The schematic diagram of GFS is shown below (schematic diagrams of GFS which has two modes: (FIG. 15) free-fall mode, (FIG. 16) rotational mode.
GFS set up assembly contains a light microscope that is horizontally mounted on an alt-azimuthal which is suspended with help of extension springs on a steel bracket. To capture both images and videos of suspended molecule, a digital video camera has been placed instead of the ocular lenses. The molecule of interest is tethered between an immobile edge of glass coverslip placed on a glass slide and mobile silica or glass bead. Slide with the molecule of interest in inserted into the light microscope component of GFS. The bead with molecule of interest is imaged through the microscope and then oriented to the direction of gravity vector to allow the maximal gravitation force exerted on to the bead. GFS has two modes, one is called rotational mode or an equilibrium mode which measures the absolute length of a single molecule and the second one is called free fall mode which measures the force required to unwind, uncoil, stretch or extend the molecule of interest.
Free fall mode, another measurement variant of GFS which allows the user to get a force distance profile on a single molecule experiencing the gravitational force. […]

[4] = system: primary polyclonal anti-S2 antibody; test: cELISA of human cardiac myosin S2 peptide against rabbit skeletal myosin S2 for antibody; type: binding; details: antibody diluted 1:64
Protocol: To evaluate the amount of cardiac myosin S2 peptide that would compete with rabbit skeletal myosin S2 to bind primary polyclonal anti-S2 antibody, the microtiter plate was coated with rabbit skeletal myosin first to that was added two fold dilutions of human cardiac myosin S2 peptide from 1000 nanomolar (nM) to 1 nM. Following this 1:64 diluted primary polyclonal antibody was added. After the washing step, secondary antibody is added followed by BCIP and development of color or OD was recorded and the video was analyzed by Image J. The OD will decrease as the concentration of human cardiac myosin S2 increases. […] The minimum amount of human cardiac myosin S2 peptide that would bind primary polyclonal anti-S2 antibody was at 62.5 nM (FIG. 36). Such a high binding efficiency was expected, since primary polyclonal anti-S2 antibody was raised against the same human cardiac myosin S2.

[5] = molecular target: T4, cardiac muscle myosin S2 peptide E930del (MYH7 E930del) (Homo sapiens, UniProt P12883, DEL931-931); test: GFS, uncoiling of E930del cardiac myosin S2 peptide dimer; type: biochemical; details: for Force required to uncoil S2 molecule: length 10 nm, absence of stabilizer, ± SEM
T4 construct: host or cells: chemical synthesis
T4 sequence (P12883 with tags, fused parts or gaps DEL931-931): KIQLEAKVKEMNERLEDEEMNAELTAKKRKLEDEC
Description: as §1
as §2, with “The flexibility of myosin S2 region was reported to be similar in single molecule form or myosin in a thick filament assembly thus it could be conceived that the changes seen on flexibility of myosin S2 in presence of anti-S2 peptides would correlate to changes in myosin S2 flexibility for myosin in a thick filament form (Singh et al., 2018). The schematic diagram of GFS is shown below (schematic diagrams of GFS which has two modes: (FIG. 15) free-fall mode, (FIG. 16) rotational mode.” left out
Free fall mode, another measurement variant of GFS which allows the user to get a force distance profile on a single molecule experiencing the gravitational force. […] During the free fall mode, GFS has a single molecule which is suspended within an immobile edge and mobile bead will now experience the variable force which would be calculated by the product of mass of the bead and the acceleration of the GFS. […]

[6] = molecular target: skeletal muscle myosin S2 peptide (MYH2) (Homo sapiens, UniProt Q9UKX2); test: GFS, uncoiling of skeletal myosin S2 peptide dimer; type: biochemical; parameters: host or cells: chemical synthesis; details: length 10 nm, absence of anti-S2 peptides, ± SEM
Description: as §1, §2
Free fall mode, another measurement variant of GFS which allows the user to get a force distance profile on a single molecule experiencing the gravitational force. Free fall mode allows a variable force by the virtue of gravity to be exerted on a single molecule. The GFS setup, light microscope with mounted camera on spring on alt-azimuthal platform, can be dropped. The start of free-fall mode force applied to the bead is zero or close to zero. […] As the platform goes towards equilibrium, trace of the acceleration decays. During the free fall mode, GFS has a single molecule which is suspended within an immobile edge and mobile bead will now experience the variable force which would be calculated by the product of mass of the bead and the acceleration of the GFS.
The product of the GFS acceleration and the mass of the bead will provide a force trace for the single molecule tethered between the immobile edge and mobile bead. The image processing would provide distance trace for the single molecule experiencing the free fall by the GFS. When this force trace is aligned with distance trace will yield the extension or the stretch experience by the single molecule under variable forces. […]

skeletal muscle myosin S2 peptide (MYH2), sequence (Q9UKX2 918-953 limits assumed): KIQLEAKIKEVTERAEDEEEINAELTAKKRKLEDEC

- Kd [1]: 1.37 nM and 1.38 nM
Compound: C[C@H](NC(=O)[C@H](CCCCN)NC(=O)[C@H](Cc1ccccc1)NC(=O)[C@H](CCCCN)NC(=O)[C@H](CCCCN)NC(=O)[C@H](CCCCN)NC(=O)[C@H](CCCCN)NC(=O)[C@H](CCCCN)NC(=O)[C@H](CCCCN)NC(=O)[C@H](CCCCN)NC(=O)[C@@H](N)CCCCN)C(=O)N[C@@H](CCCCN)C(=O)N[C@@H](CCCCN)C(=O)N[C@@H](CCCCN)C(=O)N[C@@H](CCCCN)C(=O)N[C@@H](CCCCN)C(=O)N[C@@H](CCCCN)C(=O)O [stabilizer peptide]

- Kd [2]: 302 nM
Compound: H-EMEARLEEEEDRGQQLQAERK-OH [Smooth Myosin S2, reference compound]

Compound: H-EMNERLEDEEEMNAELTAK-OH [Cardiac Myosin S2, reference compound]
- Force required to uncoil S2 molecule [3]: 8.63E−01 ± 7.45E−02 pN
- Force required to uncoil S2 molecule ([3]; listed as cardiac muscle myosin S2): 8.63×10^−1±7.45×10^−2 pN
- minimum amount that would bind primary polyclonal anti-S2 antibody [4]: 62.5 nM

- Force required to uncoil S2 molecule [5]: 4.11E−01 ± 2.97E−02 pN
- Force required to uncoil S2 molecule ([5]; listed as E930del): 4.11×10^−1±2.97×10^−2 pN
- mechanical instability compared to wild type cardiac muscle myosin S2 ([5]; no anti-S2 peptide): 2.10 times
Compound: H-EMNERLEDEEMNAELTAK-OH [Cardiac Myosin S2 Mutant, E930del]

- Force required to uncoil S2 molecule [6]: 4.50E−01 ± 5.56E−02 pN
- Force required to uncoil S2 molecule ([6]; listed as skeletal muscle myosin S2): 4.50×10^−1±5.56×10^−2 pN
Compound: H-EVTERAEDEEEINAELTAK-OH [Skeletal Myosin S2, reference compound]
